This is an account of results in patent US7897633B2, “Inhibitors of glutaminyl cyclase” (Probiodrug AG, priority 2004, dated 2011).

For orientation: melting point means the temperature of the solid-liquid transition. By Ki is commonly meant the equilibrium dissociation constant of an inhibitor or competing ligand from its target. A lower Ki goes with higher affinity. The term IC50 denotes the midpoint of a concentration-inhibition curve. A high value points to lower potency.

For one data set, the target named is glutaminyl cyclase (QC) (Homo sapiens, UniProt Q16769). Put plainly: Inhibitor assay for glutaminyl cyclase (QC) activity. To be noted: for Res. Act. (%): rapid test of QC-inhibition: 4 mM inhibitor, substrate concentration at 1 KM.
glutaminyl cyclase (QC), sequence (Q16769 29-361): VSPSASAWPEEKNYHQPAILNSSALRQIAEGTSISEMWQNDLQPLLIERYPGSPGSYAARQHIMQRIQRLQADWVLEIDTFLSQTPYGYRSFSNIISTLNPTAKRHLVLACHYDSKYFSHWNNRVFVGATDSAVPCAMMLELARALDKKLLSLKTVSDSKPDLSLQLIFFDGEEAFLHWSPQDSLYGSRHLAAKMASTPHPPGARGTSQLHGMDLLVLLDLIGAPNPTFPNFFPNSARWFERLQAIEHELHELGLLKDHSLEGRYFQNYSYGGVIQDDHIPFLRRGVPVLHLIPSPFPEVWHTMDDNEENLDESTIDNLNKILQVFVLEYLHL

Method for glutaminyl cyclase (QC): Excitation/emission wavelengths were 320/410 nm. The assay reactions were initiated by addition of glutaminyl cyclase.
Reactions were carried out at 30° C. utilizing the NOVOStar reader for microplates (BMG labtechnologies). […] Excitation/emission wavelengths were 380/460 nm. The assay reactions were initiated by addition of glutaminyl cyclase. […] The kinetic data were evaluated using GraFit software.
The initial velocities were evaluated and the enzymatic activity was determined from a standard curve of ammonia under assay conditions. All samples were measured at 30° C., using either the [sequence]luor Plus or the Sunrise (both from TECAN) reader for microplates. Kinetic data was evaluated using GraFit software.
For inhibitor testing, the sample composition was the same as described above, except of the putative inhibitory compound added. […] For detailed investigations of the inhibition and determination of Ki-values, influence of the inhibitor on the auxiliary enzymes was investigated first.

`CNC(=S)NCCCn1ccnc1` showed a melting point of 122 to 122.5 °C. Regarding `COc1ccc(NC(=S)NC[C@H](C)Cn2ccnc2)cc1OC`, the melting point was 150.5 to 151.5 °C. On the same count and under the same terms, next, `COc1ccc(NC(=S)NC[C@@H](C)Cn2ccnc2)cc1OC`: 155 to 157.5 °C; `COc1ccc(NC(=S)NCC2(Cn3ccnc3)CC2)cc1OC`: 166.5 to 168.5 °C; `C[C@@H](C(=S)NCCCn1ccnc1)c1ccccc1`: 82 to 82.5 °C. Still for that read-out and setting: then `C[C@H](C(=S)NCCCn1ccnc1)c1ccccc1`, with 82.5 to 83.5 °C. The same measure, in the same setting: next, `COc1ccc(CC(=S)NCCCn2ccnc2)cc1OC`: 148 to 150 °C; `S=C(NCCCn1ccnc1)C1(c2ccc(Cl)cc2)CCC1`: 137.5 to 139 °C. `S=C(NCCCn1ccnc1)C1(c2ccc(Cl)cc2)CCCC1` yielded a melting point of 140 to 141 °C. On the same count and under the same terms, then `COc1ccc(C2(C(=S)NCCCn3ccnc3)CCCCC2)cc1`, with 162.5 to 164 °C; and `COc1ccc(C2(C(=S)NCCCn3ccnc3)CC2)cc1`, with 129 to 129.5 °C; and `COc1ccc(NC(=S)CCCCn2ccnc2)cc1OC`, with 128 to 128.5 °C.

For the compound `COc1ccc(NC(=S)NCCn2ccnc2)cc1OC`, the melting point was 157.5 to 159 °C. The compound `COc1ccc(NC(=S)NCCCCn2ccnc2)cc1OC` yielded a melting point of 114.5 to 116 °C.

For the compound `COc1ccc(NC(=S)NCCCn2ccnc2)c(OC)c1`, the melting point was 120 to 120.5 °C. On to `COc1cc(NC(=S)NCCCn2ccnc2)cc(OC)c1`, for which the melting point was in the range of 142 to 143 °C. Compound `CC(C)(C)NC(=S)NCCCn1ccnc1` returned a melting point of 147 to 147.5 °C. Same read-out and setting: next, `S=C(NCCCn1ccnc1)Nc1ccc2c(c1)OCCO2`: 103 to 103.5 °C; `S=C(NCCCn1ccnc1)Nc1ccc2c(c1)OCO2`: 115 to 115.6 °C. Compound `COc1cc(NC(=S)NCCCn2ccnc2)cc(OC)c1OC` gave a melting point of 124.5 to 125.5 °C.

Compound `COc1cccc(NC(=S)NCCCn2ccnc2)c1` displayed a melting point of 89.5 to 90 °C. In turn, `S=C(NCCCn1ccnc1)NCc1ccccc1` displayed a melting point of 127 to 128 °C. On the same count and under the same terms, then `CN(C)c1ccc(NC(=S)NCCCn2ccnc2)cc1`, with 146.5 to 147 °C. As to `CCc1ccc(NC(=S)NCCCn2ccnc2)cc1`, the melting point was in the range of 100 to 100.5 °C. `FC(F)(F)c1ccc(NC(=S)NCCCn2ccnc2)cc1` [Example 8, 1-(3-(1H-imidazol-1-yl)propyl)-3-(4-(trifluoromethyl)phenyl)thiourea] had a melting point of 154.5 to 155 °C. For the same compound, on glutaminyl cyclase (QC), the Ki is 3.93 µM and the “Res. Act. (%)” value was 38.5%. Consider `COC(=O)c1ccc(NC(=S)NCCCn2ccnc2)cc1` [Example 9], for which the Ki at glutaminyl cyclase (QC) was 1.19 µM.

With `CC(=O)c1ccc(NC(=S)NCCCn2ccnc2)cc1` [Example 10, 1-(3-(1H-imidazol-1-yl)propyl)-3-(4-acetylphenyl)thiourea], the melting point is 170 to 171 °C. Further, at glutaminyl cyclase (QC), the Ki was found to be 1.7 µM and the “Res. Act. (%)” value was determined as 17.0%. In the case of `COc1ccc(NC(=S)NCCCn2ccnc2)cc1` [Example 11, 1-(3-(1H-imidazol-1-yl)propyl)-3-(4-methoxyphenyl)thiourea], the “Res. Act. (%)” value on glutaminyl cyclase (QC) was found to be 9.7%. As for `S=C(NCCCn1ccnc1)Nc1ccc(-c2cnco2)cc1` [Example 17], at glutaminyl cyclase (QC), the Ki turned out to be 0.86 µM and the “Res. Act. (%)” value is given as 3.64%. On to `O=S(=O)(c1ccc(NC(=S)NCCCn2ccnc2)cc1)N1CCCCC1` [Example 20], for which, at glutaminyl cyclase (QC), the affinity corresponds to a Ki of 2.27 µM and the “Res. Act. (%)” value is 8.5%.

On to `N#Cc1ccc(NC(=S)NCCCn2ccnc2)cc1` [Example 22], for which, at glutaminyl cyclase (QC), the Ki stood at 2.89 µM and the “Res. Act. (%)” value is 9.0%. Consider `CCOc1ccc(NC(=S)NCCCn2ccnc2)cc1` [Example 27, 1-(3-(1H-imidazol-1-yl)propyl)-3-(4-ethoxyphenyl)thiourea], for which the “Res. Act. (%)” value on glutaminyl cyclase (QC) worked out at 7.2%. Regarding `COc1ccc(CNC(=S)NCCCn2ccnc2)cc1` [Example 29], the Ki at glutaminyl cyclase (QC) was 3.93 µM. In the case of `CSc1ccc(NC(=S)NCCCn2ccnc2)cc1` [Example 33, 1-(3-(1H-imidazol-1-yl)propyl)-3-(4-(methylthio)phenyl)thiourea], the melting point lay in the range of 140 to 140.5 °C. For the compound `S=C(NCCCn1ccnc1)Nc1ccc(I)cc1` [Example 38], on glutaminyl cyclase (QC), the affinity, expressed as Ki, was 2.12 µM and the “Res. Act. (%)” value is listed as 23.5%. `S=C(NCCCn1ccnc1)Nc1ccc(Br)cc1` [Example 39] came in with an inhibitory constant (Ki) at glutaminyl cyclase (QC) of 2.52 µM. Turning to `CCCCNC(=S)NCCCn1ccnc1` [Example 43], on glutaminyl cyclase (QC), the IC50 was found to be 14 µM and the “Res. Act. (%)” value is given as 53.8%. On the same counts, the results for `S=C(NCCCn1ccnc1)NC1CCCCCCC1` [Example 44] are 9.1 µM and 33.1%. On the same counts, the results for `S=C(NCCCn1ccnc1)NCc1ccco1` [Example 45] are 10 µM and 61.4%.

Turning to `S=C(NCCCn1ccnc1)NCC1CCCO1` (centres unmarked) [Example 46], on glutaminyl cyclase (QC), it took 12.8 µM to reach half-maximal inhibition (IC50) and the “Res. Act. (%)” value is 46.0%. In the case of `S=C(NCCCn1ccnc1)NCc1ccc2c(c1)OCO2` [Example 47], the “Res. Act. (%)” value at glutaminyl cyclase (QC) is 42.7%. Regarding `S=C(NCCCn1ccnc1)NCCN1CCOCC1` [Example 48], at glutaminyl cyclase (QC), the 50% inhibitory concentration (IC50) is 13.3 µM and the “Res. Act. (%)” value amounted to 55.0%.

Consider `COc1cc(NC(=NC#N)NCCCn2ccnc2)cc(OC)c1` [Example 57], for which, at glutaminyl cyclase (QC), the affinity corresponds to a Ki of 0.91 µM. Same read-out and setting: then `N#CN=C(NCCCn1ccnc1)Nc1ccc2c(c1)OCO2` [Example 59], with 0.73 µM; and `COc1cc(NC(=NC#N)NCCCn2ccnc2)cc(OC)c1OC` [Example 60], with 0.88 µM. On to `N#CN=C(NCCCn1ccnc1)NCc1ccccc1` [Example 68], for which, at glutaminyl cyclase (QC), the Ki amounted to 8.17 µM and the “Res. Act. (%)” value is recorded as 22.5%. Consider `Cc1ccc(NC(=NC#N)NCCCn2ccnc2)cc1` [Example 75], for which the inhibition constant (Ki) on glutaminyl cyclase (QC) amounted to 1.34 µM.

In the case of `COc1ccc(NC(=N)NCCCn2ccnc2)cc1OC` [Example 92], the inhibition constant Ki on glutaminyl cyclase (QC) was 204 µM.

In the case of `CN=C(NCCCn1ccnc1)Nc1ccc(OC)c(OC)c1` [Example 93], affinity at glutaminyl cyclase (QC) was put at a Ki of 3.62 µM.

`CCNC(=O)NCCCn1ccnc1` [Example 96] yielded a Ki on glutaminyl cyclase (QC) of 19.2 µM. Take `O=C(NCCCn1ccnc1)Nc1cc(F)cc2c1OCOC2` [Example 97]: on glutaminyl cyclase (QC), the midpoint of inhibition, the IC50, lay at 12 µM and the “Res. Act. (%)” value is recorded as 19.0%.

For `COc1ccc(NC(=O)NCCCn2ccnc2)cc1OC1CCCC1` [Example 98], at glutaminyl cyclase (QC), the affinity, expressed as Ki, was 0.62 µM and the “Res. Act. (%)” value amounted to 2.87%. For `CCCCCCCOc1ccc(NC(=O)NCCCn2ccnc2)cc1` [Example 99], at glutaminyl cyclase (QC), the IC50 was 9.9 µM and the “Res. Act. (%)” value amounted to 5.6%.

For `COc1ccc(NC(=S)NCc2ccccc2Cn2ccnc2)cc1OC` [Example 103], on glutaminyl cyclase (QC), the Ki turned out to be 4.84 µM and the “Res. Act. (%)” value is given as 16.27%. With `COc1ccc(NC(=S)NCc2cccc(Cn3ccnc3)c2)cc1OC` [Example 104], at glutaminyl cyclase (QC), affinity was put at a Ki of 3.52 µM. In turn, `COc1ccc(NC(=S)NCc2ccc(Cn3ccnc3)cc2)cc1OC` [Example 105] returned a Ki at glutaminyl cyclase (QC) of 1.86 µM. In turn, `S=C(Cc1ccccc1)NCCCn1ccnc1` [Example 113] returned a Ki on glutaminyl cyclase (QC) of 4.62 µM. In turn, `S=C(Cc1cccs1)NCCCn1ccnc1` [Example 114] yielded a Ki on glutaminyl cyclase (QC) of 3.29 µM. On the same count and under the same terms, next, `CCC(C(=S)NCCCn1ccnc1)c1ccccc1` (centres unmarked) [Example 117]: 3.57 µM.
